Data published in patent publication US20230143604A1, “QW DOSING OF GIP RECEPTOR AGONIST PEPTIDE COMPOUNDS AND USES THEREOF” (TAKEDA PHARMACEUTICAL COMPANY LIMITED, priority 2020, published 2023).
Like-named read-outs stand apart in the source and are kept apart here.

Key:
C57BL/6J mice = assay: Oral glucose tolerance test (OGTT); assay type: in vivo; conditions: 3 nmol/kg s.c., 24 hours before glucose loading
Procedure: An oral glucose tolerance test (OGTT) was carried out using C57BL/6J mice with a 50% dextrose solution dosed at 5 ml/kg. Testing concentrations of 0.1 nmol/kg, 0.3 nmmol/kg, 3 nmol/kg or 10 nmol/kg were selected depending on the peptide. Each peptide or a vehicle (control group) was subcutaneously administered 24 hours (unless shown otherwise) before glucose loading and the blood glucose was measured at 0, 15, 30, and 60 minutes after glucose dosing.
% inhibition=(1−(AUC cpd−AUC naïve/AUC veh−AUC naïve))×100.

human GLP-1R = biological target: T1, human GLP-1R (Homo sapiens, UniProt P43220); assay: Human GLP1R agonist activity, intracellular cAMP accumulation; assay type: cell-based; conditions: HEK-293T cells overexpressing human GLP-1R, 1 hr
T1 construct: HEK-293T cells overexpressing full-length human GLP-1R; FLAG (N); host or cells: HEK-293T
T1 sequence (P43220 24-463): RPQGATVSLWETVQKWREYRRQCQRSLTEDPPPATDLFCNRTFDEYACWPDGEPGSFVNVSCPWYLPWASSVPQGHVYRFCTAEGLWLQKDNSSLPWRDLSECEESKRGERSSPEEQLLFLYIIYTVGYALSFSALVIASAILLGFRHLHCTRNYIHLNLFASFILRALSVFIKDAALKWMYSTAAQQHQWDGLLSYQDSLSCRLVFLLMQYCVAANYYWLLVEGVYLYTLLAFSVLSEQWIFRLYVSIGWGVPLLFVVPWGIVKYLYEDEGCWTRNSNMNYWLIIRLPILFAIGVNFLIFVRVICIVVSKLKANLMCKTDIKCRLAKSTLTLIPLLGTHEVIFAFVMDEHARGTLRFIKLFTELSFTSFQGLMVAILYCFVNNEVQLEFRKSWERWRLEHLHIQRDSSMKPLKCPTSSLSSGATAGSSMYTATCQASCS
Procedure: Cells are cultured per the manufacturer's protocol in DMEM with 10% fetal bovine serum and 1 μg/mL puromycin and stored in frozen aliquots to be used as assay ready cells. On the day of the assay, cells are removed from frozen storage, washed two times in 1× Kreb's Ringer Buffer (Zenbio, Research Triangle Park, N.C.), and re-suspended to a concentration of 4×10^5 cells/mL in 1× Kreb's Ringer Buffer. […] Cells are incubated with test compound for 1 hr at room temperature in the dark, and cAMP accumulation is measured using the Cisbio HiRange cAMP assay kit (Bedford, Mass.) per the manufacturer's protocol. Anti-cAMP antibody and d2-cAMP tracer reagents diluted in lysis/detection buffer are incubated in the dark for 1 hr, and results are measured on an Envision plate reader (Perkin Elmer, Waltham, Mass.). Data is normalized using 1 nm GLP-1 as 100% activity, and DMSO alone as 0% activity.

[1] = Solubility in phosphate buffer pH 7.4
Outline: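 Solubility at pH 7.4 determined by stepwise addition of 200 mM phosphate buffer in 100 μL increments to 3 mg peptide, mixing briefly each time, until no insoluble material remained, then measured by liquid chromatography.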

[2] = pH 7.4, aqueous buffer, pH 7.4 Phosphate Buffer - Solubility, 200 mM Phosphate buffer pH 7.4
[3] = pH 7.4, solubility in phosphate buffer at pH 7.4, 200 mM phosphate buffer pH 7.4

Row | SMILES | Oral Glucose Tolerance Test Percent decrease in blood glucose AUC (%) over 60 mins (C57BL/6J mice) | EC50 (human GLP-1R; Human GLP1R cAMP EC50, HEK293T (nM)) [nM] | solubility [1, 2] [mg/mL] | solubility [1, 3] [mg/mL] | EC50 (human GLP-1R; read-out: Human GLP1R cAMP EC50, HEK293T) [nM] | solubility ([1]; pH 7.4) [mg/mL] | solubility ([1]; pH 7.4, aqueous buffer) [mg/mL]
1 | CC[C@H](C)[C@H](NC(=O)[C@H](CO)NC(=O)[C@H](Cc1ccc(O)cc1)NC(=O)[C@H](CC(=O)O)NC(=O)[C@H](CO)NC(=O)[C@@H](NC(=O)[C@H](Cc1ccccc1)NC(=O)[C@@H](NC(=O)CNC(=O)[C@H](CCC(=O)O)NC(=O)C(C)(C)NC(=O)[C@H](Cc1ccc(O)cc1)NC)[C@@H](C)O)[C@@H](C)CC)C(=O)N[C@@H](C)C(=O)N[C@@H](CCCCNC(=O)CNC(=O)CNC(=O)CNC(=O)CNC(=O)CNC(=O)CCCCCCCCCCCCCCCCC(=O)O)C(=O)N[C@@H](CC(=O)O)C(=O)N[C@@H](CCCNC(=N)N)C(=O)NC(C)(C)C(=O)N[C@@H](C)C(=O)N[C@@H](CCC(N)=O)C(=O)NC(C)(C)C(=O)N[C@@H](CC(=O)O)C(=O)N[C@@H](Cc1ccccc1)C(=O)N[C@H](C(=O)N[C@@H](CC(N)=O)C(=O)N[C@@H](Cc1c[nH]c2ccccc12)C(=O)N[C@@H](CC(C)C)C(=O)N[C@@H](CC(C)C)C(=O)N[C@@H](C)C(=O)N[C@@H](CCC(N)=O)C(=O)N[C@@H](CO)C(=O)N1CCC[C@H]1C(=O)N[C@@H](CO)C(=O)N[C@@H](CO)C(=O)NCC(=O)N[C@@H](C)C(=O)N1CCC[C@H]1C(=O)N1CCC[C@H]1C(=O)N1CCC[C@H]1C(=O)N[C@@H](CO)C(N)=O)C(C)C [Compound 38] | 97% (3 nmol/kg) | 45.7 | ≥ 30 | ≥ 15 |  |  | 
2 | CC[C@H](C)[C@H](NC(=O)[C@H](CO)NC(=O)[C@H](Cc1ccc(O)cc1)NC(=O)[C@H](CC(=O)O)NC(=O)[C@H](CO)NC(=O)[C@@H](NC(=O)[C@H](Cc1ccccc1)NC(=O)[C@@H](NC(=O)CNC(=O)[C@H](CCC(=O)O)NC(=O)C(C)(C)NC(=O)[C@H](Cc1ccc(O)cc1)NC)[C@@H](C)O)[C@@H](C)CC)C(=O)N[C@@H](C)C(=O)N[C@@H](CCCCNC(=O)CNC(=O)CNC(=O)CNC(=O)CNC(=O)CNC(=O)CCCCCCCCCCCCCCCCC(=O)O)C(=O)N[C@@H](CC(=O)O)C(=O)N[C@@H](CCCNC(=N)N)C(=O)NC(C)(C)C(=O)N[C@@H](C)C(=O)N[C@@H](CCC(N)=O)C(=O)NC(C)(C)C(=O)N[C@@H](CC(=O)O)C(=O)N[C@@H](Cc1ccccc1)C(=O)N[C@H](C(=O)N[C@@H](CC(N)=O)C(=O)N[C@@H](Cc1c[nH]c2ccccc12)C(=O)N[C@@H](CC(C)C)C(=O)N[C@@H](CC(C)C)C(=O)N[C@@H](C)C(=O)N[C@@H](CCC(N)=O)C(=O)N[C@@H](CO)C(=O)N1CCC[C@H]1C(=O)N[C@@H](CO)C(=O)N[C@@H](CO)C(=O)NCC(=O)O)C(C)C [Compound 71] | 68% (3 nmol/kg) |  |  |  | 34.7 |  | 
3 | CC[C@H](C)[C@H](NC(=O)[C@H](CO)NC(=O)[C@H](Cc1ccc(O)cc1)NC(=O)[C@H](CC(=O)O)NC(=O)[C@H](CO)NC(=O)[C@@H](NC(=O)[C@H](Cc1ccccc1)NC(=O)[C@@H](NC(=O)CNC(=O)[C@H](CCC(=O)O)NC(=O)C(C)(C)NC(=O)[C@H](Cc1ccc(O)cc1)NC)[C@@H](C)O)[C@@H](C)CC)C(=O)N[C@@H](C)C(=O)N[C@@H](CCCCNC(=O)CNC(=O)CNC(=O)CNC(=O)CNC(=O)CNC(=O)CCCCCCCCCCCCCCCCCCC(=O)O)C(=O)N[C@@H](CC(=O)O)C(=O)N[C@@H](CCCNC(=N)N)C(=O)NC(C)(C)C(=O)N[C@@H](C)C(=O)N[C@@H](CCC(N)=O)C(=O)NC(C)(C)C(=O)N[C@@H](CC(=O)O)C(=O)N[C@@H](Cc1ccccc1)C(=O)N[C@H](C(=O)N[C@@H](CC(N)=O)C(=O)N[C@@H](Cc1c[nH]c2ccccc12)C(=O)N[C@@H](CC(C)C)C(=O)N[C@@H](CC(C)C)C(=O)N[C@@H](C)C(=O)N[C@@H](CCC(N)=O)C(=O)N[C@@H](CO)C(=O)N1CCC[C@H]1C(=O)NCC(=O)O)C(C)C [Compound 111] | 44% (3 nmol/kg) |  |  |  |  | ≥ 15 | ≥ 30
4 | CC[C@H](C)[C@H](NC(=O)[C@H](CO)NC(=O)[C@H](Cc1ccc(O)cc1)NC(=O)[C@H](CC(=O)O)NC(=O)[C@H](CO)NC(=O)[C@@H](NC(=O)[C@H](Cc1ccccc1)NC(=O)[C@@H](NC(=O)CNC(=O)[C@H](CCC(=O)O)NC(=O)C(C)(C)NC(=O)[C@@H](N)Cc1ccc(O)cc1)[C@@H](C)O)[C@@H](C)CC)C(=O)N[C@@H](C)C(=O)N[C@@H](CCCCNC(=O)CNC(=O)CNC(=O)CNC(=O)CNC(=O)CNC(=O)CCCCCCCCCCCCCCCCC(=O)O)C(=O)N[C@@H](CC(=O)O)C(=O)N[C@@H](CCCNC(=N)N)C(=O)NC(C)(C)C(=O)N[C@@H](C)C(=O)N[C@@H](CCC(N)=O)C(=O)NC(C)(C)C(=O)N[C@@H](CC(N)=O)C(=O)N[C@@H](Cc1ccccc1)C(=O)N[C@H](C(=O)N[C@@H](CC(N)=O)C(=O)N[C@@H](Cc1c[nH]c2ccccc12)C(=O)N[C@@H](CC(C)C)C(=O)N[C@@H](CC(C)C)C(=O)N[C@@H](C)C(=O)N[C@@H](CCC(N)=O)C(=O)N[C@@H](CO)C(=O)N1CCC[C@H]1C(=O)N[C@@H](CO)C(=O)N[C@@H](CO)C(=O)NCC(=O)N[C@@H](C)C(=O)N1CCC[C@H]1C(=O)N1CCC[C@H]1C(=O)N1CCC[C@H]1C(=O)N[C@@H](CO)C(=O)O)C(C)C [Compound 138] | 80% (3 nmol/kg) |  | ≥ 30 | ≥ 15 |  |  | 
5 | CC[C@H](C)[C@H](NC(=O)[C@H](CO)NC(=O)[C@H](Cc1ccc(O)cc1)NC(=O)[C@H](CC(=O)O)NC(=O)[C@H](CO)NC(=O)[C@@H](NC(=O)[C@H](Cc1ccccc1)NC(=O)[C@@H](NC(=O)CNC(=O)[C@H](CCC(=O)O)NC(=O)C(C)(C)NC(=O)[C@@H](N)Cc1ccc(O)cc1)[C@@H](C)O)[C@@H](C)CC)C(=O)N[C@@H](C)C(=O)N[C@@H](CCCCNC(=O)CNC(=O)CNC(=O)CNC(=O)CNC(=O)CNC(=O)CCCCCCCCCCCCCCCCC(=O)O)C(=O)N[C@@H](CC(=O)O)C(=O)N[C@@H](CCCNC(=N)N)C(=O)NC(C)(C)C(=O)N[C@@H](C)C(=O)N[C@@H](CCC(N)=O)C(=O)NC(C)(C)C(=O)N[C@@H](CC(=O)O)C(=O)N[C@@H](Cc1ccccc1)C(=O)N[C@H](C(=O)N[C@@H](CCC(=O)O)C(=O)N[C@@H](Cc1c[nH]c2ccccc12)C(=O)N[C@@H](CC(C)C)C(=O)N[C@@H](CC(C)C)C(=O)N[C@@H](C)C(=O)N[C@@H](CCC(N)=O)C(=O)N[C@@H](CCCNC(=N)N)C(=O)NCC(=O)O)C(C)C [Compound 144] | 35% (3 nmol/kg) |  |  |  |  | ≥ 15 | ≥ 30
6 | CC[C@H](C)[C@H](NC(=O)[C@H](Cc1ccccc1)NC(=O)[C@@H](NC(=O)CNC(=O)[C@H](CCC(=O)O)NC(=O)C(C)(C)NC(=O)[C@@H](N)Cc1ccc(O)cc1)[C@@H](C)O)C(=O)N[C@@H](CO)C(=O)N[C@@H](CC(=O)O)C(=O)N[C@@H](Cc1ccc(O)cc1)C(=O)N[C@@H](CO)C(=O)N[C@H](C(=O)NC(C)(C)C(=O)N[C@@H](CCCCNC(=O)CNC(=O)CNC(=O)CNC(=O)CNC(=O)CNC(=O)CCCCCCCCCCCCCCCCC(=O)O)C(=O)N[C@@H](CC(=O)O)C(=O)N[C@@H](CCCNC(=N)N)C(=O)NC(C)(C)C(=O)N[C@@H](C)C(=O)N[C@@H](CCC(N)=O)C(=O)N[C@@H](C)C(=O)N[C@@H](CC(=O)O)C(=O)N[C@@H](Cc1ccccc1)C(=O)N[C@H](C(=O)N[C@@H](CCC(=O)O)C(=O)N[C@@H](Cc1c[nH]c2ccccc12)C(=O)N[C@@H](CC(C)C)C(=O)N[C@@H](CC(C)C)C(=O)N[C@@H](C)C(=O)N[C@@H](CCC(N)=O)C(=O)N[C@@H](CCCNC(=N)N)C(=O)NCC(=O)O)C(C)C)[C@@H](C)CC [Compound 146] | 52% (3 nmol/kg) |  |  |  |  | ≥ 15 | ≥ 30
7 | CC[C@H](C)[C@H](NC(=O)[C@H](Cc1ccccc1)NC(=O)[C@@H](NC(=O)CNC(=O)[C@H](CCC(=O)O)NC(=O)C(C)(C)NC(=O)[C@@H](N)Cc1ccc(O)cc1)[C@@H](C)O)C(=O)N[C@@H](CO)C(=O)N[C@@H](CC(=O)O)C(=O)N[C@@H](Cc1ccc(O)cc1)C(=O)N[C@@H](CO)C(=O)N[C@H](C(=O)NC(C)(C)C(=O)N[C@@H](CCCCNC(=O)CNC(=O)CNC(=O)CNC(=O)CNC(=O)CNC(=O)CCCCCCCCCCCCCCCCC(=O)O)C(=O)N[C@@H](CC(=O)O)C(=O)N[C@@H](CCCNC(=N)N)C(=O)N[C@@H](C)C(=O)N[C@@H](C)C(=O)N[C@@H](CCC(N)=O)C(=O)N[C@@H](C)C(=O)N[C@@H](CC(=O)O)C(=O)N[C@@H](Cc1ccccc1)C(=O)N[C@H](C(=O)N[C@@H](CCC(=O)O)C(=O)N[C@@H](Cc1c[nH]c2ccccc12)C(=O)N[C@@H](CC(C)C)C(=O)N[C@@H](CC(C)C)C(=O)N[C@@H](C)C(=O)N[C@@H](CCC(N)=O)C(=O)N[C@@H](CCCNC(=N)N)C(=O)NCC(=O)O)C(C)C)[C@@H](C)CC [Compound 148] | 51% (3 nmol/kg) |  |  |  |  | ≥ 15 | ≥ 30
